Laboratory results taken from patent publication US12465567B2, “Enhanced antibiotic and drug delivery for aqueous topical applications for human and veterinary uses” (priority 2018, dated 2025).

Experiments:
[1] = in-vitro skin penetration, vertical diffusion cell
Method: Skin penetration studies were carried out using porcine full-thickness skin (Procured from Department of Animal and Range Sciences, SDSU) and excised human skin (NDRI, Philadelphia, PA). The skin was sandwiched between the two compartments of a vertical diffusion cell and equilibrated for 3 hrs. The receptor compartment was filled with phosphate buffer (pH 7.4) and was maintained at 37° C. with stirring. […] Samples (200μ) were removed from the receptor compartment at predetermined intervals and replaced with an equal volume of fresh buffer. To study the effect of the formulation forming a skin depot, in a separate experiment the skin was treated for 6 hrs and the treatment was removed. The donor compartment was replaced with plain buffer (pH 7.4) and the study was continued for 48 hrs. At the end of the study the skin was taken out and stratum corneum (SC) was removed using tape stripping and the tape strips were soaked in 50% ethanol overnight to extract the drug. The remaining skin (epidermis and dermis) was homogenized using 1M sodium hydroxide solution. Scintillation cocktail was added to all the samples and the radioactive counts were measured in a scintillation counter (Beckman).

[2] = system: reconstructed human skin (EPI-200; Epiderm); experiment: in vitro skin irritation, MTT viability assay; type: cell-based
Method: In vitro skin irritation studies were carried out using reconstructed human skin (EPI-200; Epiderm; Mattek Corporation, Ashland, MA). […] Briefly, the MTT assay was performed by transferring the tissues to 24-well plates containing MTT medium (1 mg/ml). After 3 hours, formazan salt formed by cellular mitochondria was extracted with 2 ml/tissue of isopropanol and the optical density will be measured using a plate reader at 570 nm. Relative cell viability will be calculated as % of the mean of the negative control. The cytotoxicity was estimated by the time to kill 50% of the cells (ET-50).

CN(C)[C@@H]1C(O)=C(C(N)=O)C(=O)[C@@]2(O)C(O)=C3C(=O)c4c(O)cccc4[C@@](C)(O)[C@H]3C[C@@H]12 [tetracycline]
amount of tetracycline in the human skin [1]: 20-60 μg/sq·cm

Triton X-100 [Positive control]
ET 50 Value [2]: 5.28 h
